Drawing on patent US9624246B2, “Pyridazinone macrocycles as IRAK inhibitors and uses thereof” (Merck Patent GmbH, priority 2015, dated 2017), this text covers IC50 for 14 compounds.

Assay [1] addresses human purified recombinant IRAK4 (His-TEV-IRAK4 (1-460)) (Homo sapiens (Human), UniProt Q9NWZ3). The experiment in a line: IRAK4 enzymatic assay (ADP-Glo luminescence). It counts as biochemical. The following applies: ATP 2 μM, STK1-biotin peptide 300 nM, 2 h at RT. As to the method: IRAK4 is a human purified recombinant enzyme (His-TEV-IRAK4 (1-460)).
In this assay, IRAK4 hydrolyses ATP, autophosphorylates and phosphorylates a Serine/Threonine generic peptidic substrate (STK: 61ST1BLC from CisBio International). Measurement of IRAK-4 inhibition is performed in 384-well format based on a luminescence assay (ADP-Glo™ Kinase Assay from Promega). Purified human recombinant IRAK4 (0.3 μg/ml) and serial diluted compounds in DMSO (range of concentration from 10 μM to 0.5 nM) or controls (1% DMSO) are incubated for 15 minutes at RT in assay buffer containing 50 mM Hepes pH 7.0, Fatty acid-free BSA 0.1%, Dithiothreitol (DTT) 2 mM, MgCl2 10 mM, EGTA 0.5 mM, Triton X-100 0.01%, MnCl2 5 mM. The kinase reaction is then initiated by the addition of ATP (2 μM) and the peptidic substrate STK1-biotin peptide (300 nM). After 2 hours of incubation at RT, the reaction is stopped and the unconsumed ATP depleted by the addition of ADP-Glo™ Reagent according to supplier instructions. After 40 minutes of incubation at RT, the Kinase Detection Reagent is then added to the assay plate according to supplier instructions. After 20 minutes of incubation at RT, the luminescence signal is measured with a plate-reading luminometer (PerkinElmer Envision or equivalent reader).

Assay [2] has as its target human purified recombinant IRAK1 (His-TEV-IRAK1 (194-712)) (Homo sapiens (Human), UniProt P51617). Briefly: IRAK1 enzymatic assay (ADP-Glo luminescence). It is filed as biochemical. The note with it: ATP 1 μM, 2 h at RT. How it is done: IRAK1 is a human purified recombinant enzyme (His-TEV-IRAK1 (194-712))
In this assay, IRAK1 hydrolyses ATP and autophosphorylates. Measurement of IRAK-1 inhibition is performed in 384-well format based on luminescence assay (ADP-Glo™ Kinase Assay from Promega). Purified human recombinant IRAK1 (0.3 μg/ml) and serial diluted compounds in DMSO (range of concentration from 10 μM to 0.5 nM) or controls (1% DMSO) are incubated for 15 minutes at RT in assay buffer containing 50 mM Hepes pH 7.0, Fatty acid-free BSA 0.1%, Dithiothreitol (DTT) 2 mM, MgCl2 10 mM, EGTA 0.5 mM, Triton X-100 0.01%. The kinase reaction is then initiated by the addition of ATP at a concentration of 1 μM. After 2 hours of incubation at RT, the reaction is stopped and the unconsumed ATP depleted by the addition of ADP-Glo™ Reagent according to supplier instructions. After 40 minutes of incubation at RT, the Kinase Detection Reagent is then added to the assay plate according to supplier instructions. After 20 minutes of incubation at RT, the luminescence signal is measured with a luminometer (PerkinElmer Envision or equivalent reader).

Sequence of human purified recombinant IRAK4 (His-TEV-IRAK4 (1-460)) (Q9NWZ3 whole entry): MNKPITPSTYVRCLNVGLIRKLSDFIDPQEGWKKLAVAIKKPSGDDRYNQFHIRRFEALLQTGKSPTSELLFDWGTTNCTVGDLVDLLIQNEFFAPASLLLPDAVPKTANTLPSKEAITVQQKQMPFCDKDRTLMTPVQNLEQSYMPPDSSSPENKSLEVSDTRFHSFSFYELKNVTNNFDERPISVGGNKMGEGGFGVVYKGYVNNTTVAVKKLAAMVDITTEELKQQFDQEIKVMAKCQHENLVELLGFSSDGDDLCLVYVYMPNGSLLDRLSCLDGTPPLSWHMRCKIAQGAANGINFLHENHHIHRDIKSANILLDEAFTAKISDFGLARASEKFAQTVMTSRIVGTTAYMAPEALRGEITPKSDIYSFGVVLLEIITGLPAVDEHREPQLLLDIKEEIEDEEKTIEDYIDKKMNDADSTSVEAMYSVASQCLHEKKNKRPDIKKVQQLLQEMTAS
Sequence of human purified recombinant IRAK1 (His-TEV-IRAK1 (194-712)) (P51617 194-712): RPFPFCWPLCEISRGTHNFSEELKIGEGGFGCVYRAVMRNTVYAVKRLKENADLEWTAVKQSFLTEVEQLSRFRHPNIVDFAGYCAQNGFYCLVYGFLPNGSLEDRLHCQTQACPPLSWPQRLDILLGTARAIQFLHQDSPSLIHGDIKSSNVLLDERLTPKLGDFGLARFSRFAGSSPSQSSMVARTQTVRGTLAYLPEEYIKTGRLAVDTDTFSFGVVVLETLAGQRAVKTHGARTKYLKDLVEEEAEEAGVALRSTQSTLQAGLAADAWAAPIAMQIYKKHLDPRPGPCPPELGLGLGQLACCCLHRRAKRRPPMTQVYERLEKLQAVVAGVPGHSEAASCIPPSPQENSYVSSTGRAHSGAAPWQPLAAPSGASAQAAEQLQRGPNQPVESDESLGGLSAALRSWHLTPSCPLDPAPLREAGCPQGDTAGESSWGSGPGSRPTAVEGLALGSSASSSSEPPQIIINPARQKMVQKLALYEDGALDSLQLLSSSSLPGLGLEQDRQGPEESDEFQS

`Cn1cc2c(n1)C(=O)NCCCOc1ccc(=O)n(n1)Cc1cccc(c1)C(=O)N2` [Compound 1, 12-methyl-20-oxa-1,9,12,13,16,25-hexaazatetracyclo[19.3.1.1^3,70^10,14]hexacosa-3,5,7(26),10,13,21(25),22-heptaene-8,15,24-trione]: the IC50 in assay [1] is less than 100 nM; in assay [2], 100 to 1000 nM.
Take `Cn1cc2c(n1)C(=O)NCCn1cc(cn1)-c1ccc(=O)n(n1)Cc1cccc(c1)C(=O)N2` [Compound 2, 12-methyl-4,5,8,11,12,15,23,27-octaazapentacyclo[21.3.1.1^2,5.1^17,210^10,14]nonacosa-1(27),2(29) 3,10,13,17(28),18,20,25-nonaene-9,16,24-trione]: the half-inhibitory concentration (IC50) in assay [1] and in assay [2] was less than 100 nM each time.
Turning to `Cn1cc2c(n1)C(=O)NCc1cncc(c1)-c1ccc(=O)n(n1)Cc1cccc(c1)C(=O)N2` [Compound 3, 17-methyl-6,14,17,18,21,25,29-heptaazapentacyclo[21.3.1.1^2,61^8,12.0^15,19]nonacosa-1(27),2(29), 3,8,10,12(28),15,18,23,25-decaene-5,13,20-trione], the half-maximal inhibitory concentration (IC50) was less than 100 nM in assay [1] and 100 to 1000 nM in assay [2].
In the same order, the values of `Cn1cc2c(n1)C(=O)NCCOc1ccc(=O)n(n1)Cc1cccc(c1)C(=O)N2` [Compound 4, 12-methyl-19-oxa-1,9,12,13,16,24-hexaazatetracyclo[18.3.1.1^3,7.0^10,14]pentacosa-3,5,7(25),10,13,20(24),21-heptaene-8,15,23-trione] are greater than 5000 nM and greater than 5000 nM.
For the compound `O=C1Nc2cn(C3CCOCC3)nc2C(=O)NCCCOc2ccc(=O)n(n2)Cc2cccc1c2` [Compound 6, 12-(oxan-4-yl)-20-oxa-1,9,12,13,16,25-hexaazatetracyclo[19.3.1.1^3,7.0^10,14]hexacosa-3,5,7(26),10,13,21(25),22-heptaene-8,15,24-trione], the figures for the IC50 in assay [1] and in assay [2] were less than 100 nM and 100 to 1000 nM, respectively.
Take `CC(C)(C)n1cc2c(n1)C(=O)NCCCOc1ccc(=O)n(n1)Cc1cccc(c1)C(=O)N2` [Compound 7, 12-tert-butyl-20-oxa-1,9,12,13,16,25-hexaazatetracyclo[19.3.1.1^3,7.0^10,14]hexacosa-3,5,7(26),10,13,21(25),22-heptaene-8,15,24-trione]: the IC50 was less than 100 nM in assay [1] and 100 to 1000 nM in assay [2].
For the compound `Cn1cc2c(n1)C(=O)NCCCOc1ccc(=O)n(n1)Cc1cccc(n1)C(=O)N2` [Compound 8, 12-methyl-20-oxa-1,9,12,13,16,25,26-heptaazatetracyclo[19.3.1.1^3,70^10,14]hexacosa-3,5,7(26),10,13,21(25),22-heptaene-8,15,24-trione], the 50% inhibitory concentration (IC50) in assay [1] was less than 100 nM; in assay [2], greater than 5000 nM.
As to `O=C1Nc2cn(C3CCOCC3)nc2C(=O)NCCCOc2ccc(=O)n(n2)Cc2cccc1n2` [Compound 9, 12-(oxan-4-yl)-20-oxa-1,9,12,13,16,25,26-heptaazatetracyclo[19.3.1.1^3,7.0^10,14]hexacosa-3,5,7(26),10,13,21(25),22-heptaene-8,15,24-trione], the results for the IC50 in assay [1] and in assay [2] were less than 100 nM and greater than 5000 nM, respectively.
With `CC(C)(C)n1cc2c(n1)C(=O)NCCCOc1ccc(=O)n(n1)Cc1cccc(n1)C(=O)N2` [Compound 10, 12-tert-butyl-20-oxa-1,9,12,13,16,25,26-heptaazatetracyclo[19.3.1.1^3,7.0^10,14]hexacosa-3,5,7(26),10,13,21(25),22-heptaene-8,15,24-trione], in assay [1], the IC50 lay within 1000 to 5000 nM.
`O=C1Nc2cn(C3CCOCC3)nc2C(=O)NCC(O)COc2ccc(=O)n(n2)Cc2cccc1c2` (stereo not drawn) [Compound 11, 18-hydroxy-12-(oxan-4-yl)-20-oxa-1,9,12,13,16,25-hexaazatetracyclo[19.3.1.1^3,7.0^10,14]hexacoa-3,5,7(26),10,13,21(25),22-heptaene-8,15,24-trione]: the IC50 was less than 100 nM in assay [1] and 100 to 1000 nM in assay [2].
For the compound `Cn1cc2c(n1)C(=O)NCC(O)COc1ccc(=O)n(n1)Cc1cccc(c1)C(=O)N2` (stereo not drawn) [Compound 12, 18-hydroxy-12-methyl-20-oxa-1,9,12,13,16,25-hexaazatetracyclo[19.3.1.1^3,7.0^10,14]hexacosa-3,5,7(26),10,13,21(25),22-heptaene-8,15,24-trione], the half-inhibitory concentration (IC50) in assay [1] was less than 100 nM; in assay [2] it was 1000 to 5000 nM.
`Cn1cc2c(n1)C(=O)NCc1cc(ccn1)-c1ccc(=O)n(n1)Cc1cccc(c1)C(=O)N2` [Compound 13, 17-methyl-6,14,17,18,21,24,29-heptaazapentacyclo[21.3.1.1^2,6.1^8,12.0^15,19]nonacosa-1(27),2(29),3,8,10,12(28),15,18,23,25-decaene-5,13,20-trione]: the half-maximal inhibitory concentration (IC50) in assay [1] is less than 100 nM; in assay [2], 100 to 1000 nM.
On to `Cn1cc2c(n1)C(=O)NCCc1cccc(c1)-c1ccc(=O)n(n1)Cc1cccc(c1)C(=O)N2` [Compound 14, 17-methyl-6,14,17,18,21,30-hexaazapentacyclo[22.3.1.1^2,6.1^8,12.0^15,19]triaconta-1(28),2(30),3,8,10,12(29),15,18,24,26-decaene-5,13,20-trione], for which the IC50 was less than 100 nM in assay [1] and 100 to 1000 nM in assay [2].
For the compound `Cc1cc2n(n1)CCc1cccc(c1)-c1ccc(=O)n(n1)Cc1cccc(c1)C(=O)N2` [Compound 15, 17-methyl-6,14,18,19,28-pentaazapentacyclo[20.3.1.1^2,6.1^8,12.0^15,19]octacosa-1(26),2(28),3,8,10,12(27)15,17,22,24-decaene-5,13-dione], the 50% inhibitory concentration (IC50) in assay [1] and in assay [2] was greater than 5000 nM each time.
